Test results published in the supplement of paper PMC8498969.

How the values were obtained:
HEK293 [1] = assay: maximal inhibition of ZIKV NS1 production (% inhibition); higher = stronger antiviral effect
Experimental: (§1)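 HEK293 cells in 1536-well plates were pre-treated with compound for 1 h, infected with ZIKV (MOI 1) for 24 h, and NS1 antigen (intra- plus extracellular) was measured by TR-FRET. Confirmation used 11-point 1:3 dilutions, and IC50 and maximal inhibition were fitted in GraphPad Prism.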

HEK293 [2] = assay: IC50 for inhibition of ZIKV NS1 production
Experimental: as §1

HEK293 [3] = assay: cytotoxicity IC50 (ATP content, uninfected cells); higher = less cytotoxic; conditions: infection: none

SMILES | maximal inhibition (HEK293 [1]) | IC50 (HEK293 [2]) | cytotoxicity IC50 (HEK293 [3])
Cc1ccc(NC(=O)c2ccc(CN3CCN(C)CC3)cc2)cc1Nc1nccc(-c2cccnc2)n1 | 64 | 60 µM | 41 µM
CCC[C@H](Nc1nc(-c2ccc(NC(=O)NCC)c(OC)c2)ncc1C)c1cccnc1 | 72 | 0.17 µM | > 100 µM
Cc1c(N)nc([C@H](CC(N)=O)NC[C@@H](N)C(N)=O)nc1C(=O)N[C@H](C(=O)N[C@@H](C)[C@H](O)[C@@H](C)C(=O)N[C@@H](C(=O)NCCc1nc(-c2nc(C(=O)NCCC[S+](C)C)cs2)cs1)[C@@H](C)O)C(O[C@H]1O[C@H](CO)[C@H](O)[C@@H](O)[C@H]1O[C@H]1O[C@H](CO)[C@@H](O)[C@H](OC(N)=O)[C@@H]1O)c1cnc[nH]1 (some centres not stated) | 103 | 6.3 µM | > 100 µM
COc1cccc2c(NCc3ccccc3)nc(-n3c(N)nc4ccccc43)nc12 | 100 | 50 µM | 30 µM
Cc1cnc(NC(=O)Nc2cc(Br)c(C)cc2OC[C@@H]2CNCCO2)cn1 | 101 | 1.7 µM | > 100 µM
CCCCCC[C@H]1C(=O)O[C@H](C)[C@H](NC(=O)c2cccc(NC=O)c2O)C(=O)O[C@@H](C)[C@@H]1OC(=O)CC(C)C | 94 | 0.012 µM | 0.0055 µM
CC[C@]1(O)C[C@@H]2CN(CCc3c([nH]c4ccccc34)[C@@](C(=O)OC)(c3cc4c(cc3OC)N(C)[C@H]3[C@@](O)(C(=O)OC)[C@H](OC(C)=O)[C@]5(CC)C=CCN6CC[C@]43[C@@H]65)C2)C1 | 73 | 5.6 µM | > 100 µM
O=C1/C(=C/c2ccccc2)C[C@@]2(O)[C@H]3Cc4ccc(O)c5c4[C@@]2(CCN3CC2CC2)[C@H]1O5 | 106 | 7.2 µM | 2.4 µM
CCOC(=O)C1=C(C)NC(=S)NC1c1cccc(O)c1 (configuration not stated) | 89 | 50 µM | > 100 µM
COC(=O)Nc1nc2cc(C(=O)c3cccs3)ccc2[nH]1 | 68 | 1.1 µM | > 100 µM
CC(C)C[C@H](NC(=O)CNC(=O)c1cc(Cl)ccc1Cl)B(O)O | 102 | 0.23 µM | 2.1 µM
C=CCn1c(=O)c2cnc(Nc3ccc(N4CCN(C)CC4)cc3)nc2n1-c1cccc(C(C)(C)O)n1 | 99 | 1.7 µM | > 100 µM
CC(C)C[C@H](NC(=O)[C@H](CCc1ccccc1)NC(=O)CN1CCOCC1)C(=O)N[C@@H](Cc1ccccc1)C(=O)N[C@@H](CC(C)C)C(=O)[C@@]1(C)CO1 | 90 | 0.16 µM | 0.32 µM
C#C[C@]1(OC(C)=O)CC[C@H]2[C@@H]3CCC4=C/C(=N/O)CC[C@@H]4[C@H]3CC[C@@]21CC | 48 | 43 µM | > 100 µM
CCCCc1ccc2[nH]c(NC(=O)OC)nc2c1 | 80 | 0.69 µM | 3 µM
CCOC(=O)C1=C(C)NC2=C(C(=O)CC(C)(C)C2)C1c1ccc(-c2ccccc2)cc1 (configuration not stated) | 89 | 17 µM | > 100 µM
Oc1c(Cl)cc(Cl)c2cccnc12 | 93 | 46 µM | 16 µM
O=C1NC(=O)/C(=C/c2ccc3nccc(-c4ccncc4)c3c2)S1 | 82 | 1.9 µM | 1.4 µM
C[C@@H]1C[C@@H]([C@H](O)CC2CC(=O)NC(=O)C2)C(=O)[C@@H](C)C1 | 102 | 0.29 µM | > 100 µM
COc1cc([C@@H]2c3cc4c(cc3[C@H](O)[C@H]3COC(=O)[C@@H]23)OCO4)cc(OC)c1OC | 68 | 2.6 µM | > 100 µM

SMILES | maximal inhibition (HEK293 [1]) | IC50 (HEK293 [2]) | cytotoxicity IC50 (HEK293 [3])
CN1CC[C@H](c2c(O)cc(O)c3c(=O)cc(-c4ccccc4Cl)oc23)[C@H](O)C1 | 93 | 1.2 µM | > 100 µM
O=C(Cc1ccc(-c2ccc(OCCN3CCOCC3)cc2)cn1)NCc1ccccc1 | 50 | 0.48 µM | 19 µM
CN(C)C(=S)SSC(=S)N(C)C | 99 | 0.51 µM | 0.18 µM
O=C(Nc1cc(C(F)(F)F)cc(C(F)(F)F)c1)c1cc(Cl)ccc1O | 99 | 3.9 µM | 0.71 µM
COC(=O)[C@]12CCC(C)(C)C[C@H]1[C@H]1C(=O)C=C3[C@@]4(C)C=C(C#N)C(=O)C(C)(C)[C@@H]4CC[C@@]3(C)[C@]1(C)CC2 | 100 | 0.28 µM | 2.7 µM
Cc1ccccc1C(=O)c1ccc(Nc2ccc(Br)cc2N)cc1Cl | 68 | 40 µM | > 100 µM
CCc1ccc(OCc2ccccc2C(=O)Nc2ccc3nc(C)cc(N)c3c2)cc1 | 104 | 14 µM | 11 µM
Cc1c2oc3c(C)ccc(C(=O)N[C@@H]4C(=O)N[C@H](C(C)C)C(=O)N5CCC[C@H]5C(=O)N(C)CC(=O)N(C)[C@@H](C(C)C)C(=O)O[C@@H]4C)c3nc-2c(C(=O)N[C@@H]2C(=O)N[C@H](C(C)C)C(=O)N3CCC[C@H]3C(=O)N(C)CC(=O)N(C)[C@@H](C(C)C)C(=O)O[C@@H]2C)c(N)c1=O | 99 | 0.35 µM | > 100 µM
O=C1NCCc2[nH]c(-c3ccncc3)cc21 | 85 | 20 µM | > 100 µM
CN1CCN(Cc2ccc(NC(=O)Nc3ccc(Oc4cc(NC(=O)C5CC5)ncn4)cc3)cc2C(F)(F)F)CC1 | 104 | 2.4 µM | > 100 µM
CO[C@H]1[C@H](O)[C@@H](O)[C@H](n2c3c(Cl)cccc3c3c4c(c5c6cccc(Cl)c6[nH]c5c32)C(=O)NC4=O)O[C@@H]1CO | 90 | 2.1 µM | 60 µM
O=C1C(SCCO)=C(SCCO)C(=O)c2ccccc21 | 97 | 5.5 µM | 5.3 µM
CC(C)C[C@H](NC(=O)[C@H](Cc1ccccc1)NC(=O)c1cnccn1)B(O)O | 95 | 0.025 µM | 0.04 µM
C=C1C(=O)O[C@H]2[C@H]1CC/C(C)=C/CC[C@@]1(C)O[C@@H]21 | 106 | 43 µM | 20 µM
CC(=O)OC[C@H]1O[C@@H]([S-])[C@H](OC(C)=O)[C@@H](OC(C)=O)[C@@H]1OC(C)=O.CCP(CC)CC.[Au+] | 107 | 3.5 µM | 3 µM
CC[C@@]1(O)C(=O)OCc2c1cc1n(c2=O)Cc2cc3c(CN(C)C)c(O)ccc3nc2-1 | 96 | 0.051 µM | > 100 µM
CCOC(=O)C1(c2ccccc2)CCN(CCC(C#N)(c2ccccc2)c2ccccc2)CC1 | 105 | 6 µM | 9.2 µM
CC[C@]1(O)C[C@H]2CN(CCc3c([nH]c4ccccc34)[C@@](C(=O)OC)(c3cc4c(cc3OC)N(C=O)[C@H]3[C@@](O)(C(=O)OC)[C@H](OC(C)=O)[C@]5(CC)C=CCN6CC[C@]43[C@@H]65)C2)C1 | 55 | 0.16 µM | > 100 µM
C1CCC(C(CC2CCCCN2)C2CCCCC2)CC1 (configuration not stated) | 98 | 45 µM | 50 µM
